Test results taken from ChEMBL document CHEMBL4616613, “Phosphine boranes as less hydrophobic building blocks than alkanes and silanes: Structure-property relationship and estrogen-receptor-modulating potency of 4-phosphinophenol derivatives” (Bioorg Med Chem, 2020).

Columns and labels:
Estrogen receptor [1] = target: T1, Estrogen receptor (Homo sapiens, UniProt P03372)
T1 sequence (P03372 whole entry): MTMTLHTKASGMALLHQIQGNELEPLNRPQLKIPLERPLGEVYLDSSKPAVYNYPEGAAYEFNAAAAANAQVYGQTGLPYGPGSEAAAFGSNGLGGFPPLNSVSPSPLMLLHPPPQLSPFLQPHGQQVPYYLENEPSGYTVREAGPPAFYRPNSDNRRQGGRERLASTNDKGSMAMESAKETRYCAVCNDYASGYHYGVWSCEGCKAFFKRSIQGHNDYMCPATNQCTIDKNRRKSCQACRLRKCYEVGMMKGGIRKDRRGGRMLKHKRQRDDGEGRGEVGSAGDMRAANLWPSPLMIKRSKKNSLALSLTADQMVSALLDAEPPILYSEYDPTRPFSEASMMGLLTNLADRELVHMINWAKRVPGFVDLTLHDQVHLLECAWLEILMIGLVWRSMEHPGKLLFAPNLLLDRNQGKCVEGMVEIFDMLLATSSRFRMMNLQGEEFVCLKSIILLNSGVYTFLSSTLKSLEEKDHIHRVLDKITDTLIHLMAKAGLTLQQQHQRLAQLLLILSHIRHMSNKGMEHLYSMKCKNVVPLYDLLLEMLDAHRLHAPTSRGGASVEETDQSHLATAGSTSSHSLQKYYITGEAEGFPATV
Description: (§1) Antagonist activity at human Gal4-fused ERalpha expressed in HEK293 cells assessed as inhibition of E2-induced transcriptional activation after 24 hrs by luciferase/beta-galactosidase reporter gene assay

Estrogen receptor beta [2] = target: T2, Estrogen receptor beta (Homo sapiens, UniProt Q92731)
T2 sequence (Q92731 whole entry): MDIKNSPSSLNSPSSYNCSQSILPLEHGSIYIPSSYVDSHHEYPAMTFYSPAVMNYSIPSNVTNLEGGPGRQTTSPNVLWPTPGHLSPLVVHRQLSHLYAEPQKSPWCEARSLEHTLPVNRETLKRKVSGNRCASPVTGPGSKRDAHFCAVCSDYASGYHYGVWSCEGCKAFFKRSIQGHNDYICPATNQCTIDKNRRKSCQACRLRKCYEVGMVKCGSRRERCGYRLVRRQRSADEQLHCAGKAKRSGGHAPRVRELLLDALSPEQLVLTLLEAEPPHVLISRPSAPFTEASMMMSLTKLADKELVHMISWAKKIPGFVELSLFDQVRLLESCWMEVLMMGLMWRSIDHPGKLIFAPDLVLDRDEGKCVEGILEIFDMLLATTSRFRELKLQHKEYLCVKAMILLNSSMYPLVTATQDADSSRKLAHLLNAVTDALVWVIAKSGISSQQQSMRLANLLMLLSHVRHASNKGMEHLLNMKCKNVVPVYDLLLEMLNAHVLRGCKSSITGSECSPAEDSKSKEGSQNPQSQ
Description: (§2) Antagonist activity at human Gal4-fused ERbeta expressed in HEK293 cells assessed as inhibition of E2-induced transcriptional activation after 24 hrs by luciferase/beta-galactosidase reporter gene assay

Estrogen receptor [3] = target: T1, Estrogen receptor; conditions: hek293
Description: (§3) Agonist activity at human Gal4-fused ERalpha expressed in HEK293 cells assessed as transcriptional activation after 24 hrs by luciferase/beta-galactosidase reporter gene assay

physchem [4] = conditions: 1-octanol/water
Description: 1-Octanol-water partition coefficient, log P of the compound by HPLC analysis

physchem [5] = assay: physchem
Description: Acid dissociation constant, pKa of the compound by UV spectral absorption analysis

Estrogen receptor beta [6] = target: T2, Estrogen receptor beta; assay: Agonist activity at human Gal4-fused ERbeta expressed in HEK293 cells assessed as transcriptional activation at 30 uM after 24 hrs by luciferase/beta-galactosidase reporter gene assay relative to estradiol; assay type: cell-based
Estrogen receptor beta [7] = target: T2, Estrogen receptor beta; assay: Antagonist activity at human Gal4-fused ERbeta expressed in HEK293 cells assessed as inhibition of E2-induced transcriptional activation at 30 uM after 24 hrs by luciferase/beta-galactosidase reporter gene assay relative to control; assay type: cell-based
Estrogen receptor [8] = target: T1, Estrogen receptor; conditions: hek293; remark: listed apart in the source
Description: as §1

Estrogen receptor beta [9] = target: T2, Estrogen receptor beta; conditions: hek293
Description: as §2

[10] = target: T3, Estrogen receptor (Homo sapiens) (UniProt P03372); assay: Agonist activity at human Gal4-fused ERalpha expressed in HEK293 cells assessed as transcriptional activation at 30 uM after 24 hrs by luciferase/beta-galactosidase reporter gene assay relative to estradiol; assay type: cell-based
T3 sequence (whole entry): T1 sequence (P03372 whole entry)

Estrogen receptor [11] = target: T1, Estrogen receptor; remark: listed apart in the source
Description: as §3

EC50 (Estrogen receptor [11])	Structure (SMILES)	IC50 (Estrogen receptor [1])	IC50 (Estrogen receptor beta [2])	EC50 (Estrogen receptor [3])	logP (physchem [4])	pKa (physchem [5])	Activity (Estrogen receptor beta [6])	inhibition (Estrogen receptor beta [7])	IC50 (Estrogen receptor [8])	IC50 (Estrogen receptor beta [9])	Activity [10]
–	B.Oc1ccc(P(c2ccccc2)c2ccccc2)cc1	12 µM	2 µM	Not Active	4.96	8.81	–	–	–	–	–
–	Oc1ccc(P(=S)(c2ccccc2)c2ccccc2)cc1	20 µM	13 µM	Not Active	4.08	8.6	–	–	–	–	–
–	CP(=[Se])(c1ccccc1)c1ccc(O)cc1 (stereo unspecified)	–	–	Not Active	3.27	8.64	24%	30%	Not Active	–	–
–	CP(c1ccccc1)c1ccc(O)cc1 (stereo unspecified)	–	–	Not Active	3.67	9.49	–	–	Not Active	Not Active	–
–	B.CP(c1ccccc1)c1ccc(O)cc1 (stereo unspecified) [listing 1 of 2 here]	9.8 µM	2.5 µM	Not Active	3.38	8.83	–	–	–	–	–
–	CP(=S)(c1ccccc1)c1ccc(O)cc1 (stereo unspecified)	–	–	–	2.69	8.65	24%	–	Not Active	Not Active	24%
> 30 µM	C[Si](C)(c1ccccc1)c1ccc(O)cc1	13 µM	5 µM	–	4.8	10.2	20%	–	–	–	–
19 µM	CP(=O)(c1ccccc1)c1ccc(O)cc1 (stereo unspecified)	–	–	–	1.88	8.63	36%	–	Not Active	Not Active	–
–	Oc1ccc(P(c2ccccc2)c2ccccc2)cc1	–	–	Not Active	5.06	9.48	–	–	Not Active	Not Active	–
–	O=P(c1ccccc1)(c1ccccc1)c1ccc(O)cc1	–	–	Not Active	3.22	8.51	–	–	Not Active	Not Active	–
–	B.CP(c1ccccc1)c1ccc(O)cc1 (stereo unspecified) [listing 2 of 2 here]	–	–	–	–	–	16%	–	–	–	–

Structure (SMILES)	EC50 (Estrogen receptor [11])	IC50 (Estrogen receptor [1])	IC50 (Estrogen receptor beta [2])	EC50 (Estrogen receptor [3])	logP (physchem [4])	pKa (physchem [5])	Activity (Estrogen receptor beta [6])	inhibition (Estrogen receptor beta [7])	IC50 (Estrogen receptor [8])	IC50 (Estrogen receptor beta [9])	Activity [10]
CC(C)(c1ccccc1)c1ccc(O)cc1	4.4 µM	24 µM	13 µM	–	4.2	10.6	38%	–	–	–	–
